Patent US20040131497A1, “PROCESS FOR STERILIZATION OF BIOLOGICAL COMPOSITIONS CONTAING PROTEIN” (priority 2002, published 2004)
Read-outs that look alike come from different tables or passages of the source.

Experiments:
[1] = cited from earlier work
[2] = test system: PRV=pseudorabies virus; conditions: fibrinogen 5 g/L, UVC 254 nm, eight passes
[3] = test system: PRV
[4] = test system: Factor VIII; type: biochemical

For `C[C@@H]1O[C@@H](OC[C@H]2O[C@@H](Oc3c(-c4ccc(O)c(O)c4)oc4cc(O)cc(O)c4c3=O)[C@H](O)[C@@H](O)[C@@H]2O)[C@H](O)[C@H](O)[C@H]1O` [rutin, reference compound], the “solubility in aqueous solutions” value [1] is given as “poorly soluble in aqueous solutions”, the “Log reduction PRV” value ([2]; stabiliser 0.5 mM) is given as 3 Log and the “Log reduction PRV” value ([2]; stabiliser 1 mmol/l) is given as 3 Log. The “Log reduction PRV” value ([2]; stabiliser 2 mmol/l) was 2.5 Log.

For `COc1cc(C=O)ccc1O` [vanillin], the PRV titer reduction [3] was 5 Log, the “decrease in FVIII activity” value [4] was 10% and the “Log reduction PRV” value ([2]; stabiliser 0.5 mM) was 5 Log. The “Log reduction PRV” value ([2]; stabiliser 1 mmol/l) was 5.5 Log and the “Log reduction PRV” value ([2]; stabiliser 2 mmol/l) was 5.5 Log.
